Here are results for one compound from patent US9717769B2, “Method for protecting kidney function” (FUGENBIOPHARMA CO., LTD., priority 2015, dated 2017).

This experiment deals with MDCK cell line. In words: MTT analysis of kidney-protection effect against cisplatin-induced renal toxicity. It counts as cell-based, canine. Conditions: treated with cisplatin only (5 μM), MTT 24 hours after cisplatin; relative to negative control (neither cisplatin nor EPS) set at 100%. The method, then:
MTT analysis was conducted to confirm the kidney-protection effect of the EPS prepared in Preparation Example 4 against renal toxicity caused by an anti-cancer agent.
First, MDCK cell line (Korean Cell Line Bank, Korea) was cultured in DMEM medium supplemented with 10% fetal bovine serum, 100 μg/mL streptomycin and 100 U/mL penicillin at 37° C. and 5% CO2. 100 μL each of the cultured cells was dispensed to 96-well plate at 2×10^4 cells/mL, and cultured for 24 hours. The EPS was added thereto to a concentration of 25, 50 or 250 μg/mL, and 2 hours thereafter, 5 μM of cisplatin was added thereto.
24 hours after cisplatin was added, 10 μL of MTT (1 mg/mL) dissolved in PBS was added to each well, subjected to reaction for 4 hours. After 4 hours, the formation of formazan was confirmed, and the supernatant was completely removed so that formazan may not be dispersed. Then, the resultant was added to dissolve, in 100 μL of DMSO and dissolved, followed by the measurement of the absorbance at 570 nm using ELISA reader.
The results are shown in FIG. 1 as relative values when the value of the negative control group treated with neither cisplatin nor EPS was set at 100%.

As to `N.N.[Cl][Pt][Cl]` [cisplatin, cis-diammine-dichloroplatinum [II]], the “survival rate of MDCK cell line” value is given as “about 60%”.
